This note sets out measurements from US10058550B2, “Methods of treating heart failure” (priority 2015, dated 2018).

This assay addresses human APJ receptor (Homo sapiens (Human), UniProt P35414). In words: biochemical. The assay is classed as biochemical. Conditions: read-out: Activity hAPJ SPA EC50 IP. Here is the method:
The human APJ receptor was cloned by polymerase chain reaction and the gene encoding the receptor was subcloned in pFLAG-CMV™-3 expression vector (Sigma, Saint Louis, Mo. USA) in-house at Amgen. A GTPγS binding assay was performed on membranes prepared from CHO cells stably expressing human APJ receptor. The optimum experimental conditions for the concentrations of GDP, MgCl2, and NaCl in the assay buffer were initially determined. The assay was performed in assay buffer [20 mM HEPES, pH 7.5, 5 mM MgCl2, and 0.1% (w/v) BSA with 200 mM NaCl, 3 μM GDP] and membranes expressing human APJ receptor/well along with WGA PS beads. The reaction was initiated by addition of 0.2 nM [^35S]GTPγS (Perkin Elmer Life and Analytical Sciences, Waltham USA) in the absence or presence of various ligands and incubated at RT for 90 min. […] All the results presented are means of several independent experiments and analyzed by non-linear regression methods using commercially available program Prism (GraphPad, San Diego, Calif.) to obtain EC50 detailed in Table 58.

Sequence of human APJ receptor (P35414 whole entry): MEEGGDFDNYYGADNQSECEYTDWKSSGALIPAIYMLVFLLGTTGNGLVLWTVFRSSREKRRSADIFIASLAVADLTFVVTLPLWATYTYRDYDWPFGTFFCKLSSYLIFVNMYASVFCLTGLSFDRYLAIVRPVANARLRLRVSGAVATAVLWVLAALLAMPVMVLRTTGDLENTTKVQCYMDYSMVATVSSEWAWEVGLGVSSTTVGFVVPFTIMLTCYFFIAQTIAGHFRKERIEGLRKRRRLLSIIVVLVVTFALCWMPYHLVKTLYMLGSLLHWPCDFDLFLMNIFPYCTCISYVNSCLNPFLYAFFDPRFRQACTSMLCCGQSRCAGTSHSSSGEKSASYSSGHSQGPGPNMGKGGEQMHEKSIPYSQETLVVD

As usually defined, the EC50 is the midpoint of the concentration-response curve. Turning to `COc1cccc(OC)c1-n1c(NS(=O)(=O)[C@@H](C)[C@H](C)c2ncc(F)cn2)nnc1-c1cncc(C)c1` (single isomer, unassigned) [Example 235.0], the concentration for a half-maximal effect (EC50) was 0.28 nM. For the compound `COc1cccc(OC)c1-n1c(NS(=O)(=O)[C@@H](C)[C@H](C)c2ncc(F)cn2)nnc1-c1cncc(C)c1` (single isomer, unassigned) [Example 236.0], the concentration for a half-maximal effect (EC50) worked out at 100 nM. As to `COc1cccc(OC)c1-n1c(NS(=O)(=O)[C@@H](C)[C@H](C)c2ncc(F)cn2)nnc1-c1cncc(C)c1` (single isomer, unassigned) [Example 237.0], the EC50 came to 14 nM.

Consider `COc1cccc(OC)c1-n1c(NS(=O)(=O)[C@@H](C)[C@H](O)c2ccc(C#N)cc2)nnc1-c1cncc(C)c1` (single isomer, unassigned) [Example 248.0], for which the EC50 worked out at 60 nM. Turning to `COc1cccc(-c2nnc(NS(=O)(=O)C[C@H](O)c3ccc(F)cc3S(C)(=O)=O)n2-c2c(OC)cccc2OC)n1` (single isomer, unassigned) [Example 268.0, (R)—N-(4-(2,6-dimethoxyphenyl)-5-(6-methoxypyridin-2-yl)-4H-1,2,4-triazol-3-yl)-2-(4-fluoro-2-(methylsulfonyl)phenyl)-2-hydroxyethanesulfonamide or (S)—N-(4-(2,6-dimethoxyphenyl)-5-(6-methoxypyridin-2-yl)-4H-1,2,4-triazol-3-yl)-2-(4-fluoro-2-(methylsulfonyl)phenyl)-2-hydroxyethanesulfonamide], the EC50 amounted to 0.17 nM. As for `COc1cccc(-c2nnc(NS(=O)(=O)[C@@H](C)[C@H](O)c3ccc(F)cc3F)n2-c2c(OC)cccc2OC)n1` (single isomer, unassigned) [Example 279.0], the figure is 28 nM; as for `COc1cccc(-c2nnc(NS(=O)(=O)[C@@H](C)[C@H](O)c3ccc(F)cc3F)n2-c2c(OC)cccc2OC)n1` (single isomer, unassigned) [Example 280.0], 0.27 nM. For the compound `COc1cccc(-c2nnc(NS(=O)(=O)[C@@H](C)[C@H](O)c3ccc(F)cc3F)n2-c2c(OC)cccc2OC)n1` (single isomer, unassigned) [Example 281.0], the EC50 is 43 nM.

As for `COc1cccc(-c2nnc(NS(=O)(=O)[C@@H](C)[C@H](O)c3ccc(F)cc3F)n2-c2c(OC)cccc2OC)n1` (single isomer, unassigned) [Example 282.0], the EC50 amounted to 0.71 nM. For the compound `COc1cccc(-c2nnc(NS(=O)(=O)[C@@H](C)[C@H](O)c3ccc(F)cc3)n2-c2c(OC)cccc2OC)n1` (single isomer, unassigned) [Example 284.0], the EC50 worked out at 13 nM. As for `COc1cccc(-c2nnc(NS(=O)(=O)[C@@H](C)[C@H](O)c3ccc(F)cc3)n2-c2c(OC)cccc2OC)n1` (single isomer, unassigned) [Example 285.0], the EC50 worked out at 0.57 nM. As for `COc1cccc(-c2nnc(NS(=O)(=O)[C@@H](C)[C@H](O)c3ccc(F)cc3)n2-c2c(OC)cccc2OC)n1` (single isomer, unassigned) [Example 286.0], the figure is 0.68 nM.

Regarding `COc1cccc(-c2nnc(NS(=O)(=O)[C@@H](C)[C@H](O)c3ccc(F)cc3)n2-c2c(OC)cccc2OC)n1` (single isomer, unassigned) [Example 287.0], the EC50 is 14 nM.

For the compound `COc1cccc(-c2nnc(NS(=O)(=O)[C@@H](C)[C@H](O)c3ccc(F)cc3S(C)(=O)=O)n2-c2c(OC)cccc2OC)n1` (single isomer, unassigned) [Example 289.0, (1R,2S)—N-(4-(2,6-dimethoxyphenyl)-5-(6-methoxypyridin-2-yl)-4H-1,2,4-triazol-3-yl)-1-(4-fluoro-2-(methylsulfonyl)phenyl)-1-hydroxypropane-2-sulfonamide or (1S,2R)—N-(4-(2,6-dimethoxyphenyl)-5-(6-methoxypyridin-2-yl)-4H-1,2,4-triazol-3-yl)-1-(4-fluoro-2-(methylsulfonyl)phenyl)-1-hydroxypropane-2-sulfonamide], the 50% effective concentration (EC50) was 11 nM.
